Source: patent US20240002313A1, “[11C]-LABELED ACYCLIC RETINOID, CENTRAL NERVOUS SYSTEM ACTIVATOR, AND PRODUCTION METHODS FOR SAME” (NATIONAL CENTER FOR GERIATRICS AND GERONTOLOGY, priority 2020, published 2024)

Columns and labels:
NT2 cells = assay: Differentiation induction from stem cells to nerve cells; type: cell-based, human; details: peretinoin 3 10 μM, ATRA 1 μM or 10 μM
Description: NTERA-2 cl.D1 [NT2/D1] cells (ATCC CRL-1973) (hereinafter described as “NT2 cells”) derived from human pluripotent embryonic cancer were adhesion cultured in a maintenance culture medium (high glucose D-MEM (Sigma-Aldrich, D6429), 10% FBS, 100 U/ml penicillin/streptomycin) under conditions of 37° C. and 5% CO2 for 3 to 4 days on a 10 cm plastic dish until becoming confluent. The NT2 cells were exfoliated by Accutase (Innovative Cell Technologies, #AT104), passaged, and maintenance cultured for 50 days. The medium was changed three times a week. The maintenance cultured NT2 cells were dispersed in a petri dish for low-attached microorganisms (STAR SDish9015, RIKEN) at a concentration of 1.5×10^6 to 2.5×10^6/dish, and suspension cultured on a vibrator (100 rpm) under conditions of 37° C. and 5% CO2, and after one day, 1 μM or 10 μM ATRA was added to induce differentiation and form spheroids. After 14 days, the spheroids were recovered, seeded on a 10 cm dish coated with 5 μg/ml poly-D-lysine (PDL) (Sigma-Aldrich)/laminin (LAM) (iMatrix-511, Nippi), and adhesion cultured under conditions of 37° C. and 5% CO2. […]

[1] = system: NMDA-type glutamate receptors; assay: Calcium imaging of reactivity to NMDA in differentiated cells; type: cell-based, human; details: NT2-N cells, Fluo-8, 100 μM NMDA solution
Description: In order to confirm a statement of synaptic receptors in mature cells, a calcium influx via NMDA-type glutamate receptors was measured as follows.
A fluorescent calcium indicator Fluo-8 AM (AAT Bioquest) was dissolved in Mg-free HHBS (Hepes-buffered Hanks' balanced salt solution (1.26 mM CaCl2, 5.33 mM KCl, 0.44 mM KH2PO4, 4.17 mM NaHCO3, 137.93 mM NaCl, 0.34 mM Na2HPO4, 5.56 mM D-glucose, 20 mM HEPES, pH 7.4)) containing 0.1 μM glycine (4 μM, 2 μM, respectively). This solution (1 ml) was loaded into NT2-N cells under conditions of 37° C. and 5% CO2 (2 hours, 30 minutes, respectively), and fluo8 was loaded into the cells. Thereafter, an extracellular fluid was replaced with Mg-free HHBS containing 0.1 μM glycine, and it was used for the following measurement after being left in an incubator (37° C., 5% CO2) of a living cell time-lapse imaging device (BioStation IM-Q, Nikon) for 1 hour or more. For the NT2-N cells placed in the device, 5 to 10 fields of view to be analyzed were manually set, and for each field of view, fluorescence intensity was continuously recorded every 2 seconds for 5 minutes at an excitation wavelength of 480 nm/a fluorescence wavelength of 520 nm. Further, after a certain period of time elapsed from the start of recording, 100 μl of the 100 μM NMDA solution (Mg-free HHBS containing 0.1 μM glycine) prepared above was administered.

[2] = Non Patent Literature 2 and 3; cited from earlier work
[3] = PET pharmacokinetic test of 11C-labeled acyclic retinoids in rats; type: in vivo, Sprague-Dawley rats; details: rat, i.v.
Description: (§1) The ^11C-labeled acyclic retinoid 4c and the ^11C-labeled peretinoin 3 synthesized by the methods described above were administered intravenously (i.v.) to Sprague-Dawley rats and cynomolgus monkeys as a PET probe, and PET images were photographed.

[4] = PET pharmacokinetic test of 11C-labeled acyclic retinoids in cynomolgus monkeys; type: in vivo; details: cynomolgus monkey, i.v.
Description: as §1

[5] = system: cerebral cortex-striatal tissue sections; assay: Inhibitory effect on thrombin toxicity in cultured brain slices; type: cell-based, Wistar/ST rat; details: 10, 20, 30 μM; thrombin 100 U/ml, 72 hours
Description: (§2) Thrombin is known to induce cerebral cortex cell death and striatal tissue atrophy. Therefore, an experiment for evaluating thrombin toxicity was performed. In other words, a coronal section having a thickness of 300 μm was prepared from a brain of a Wistar/ST rat aged 2 to 3 days after birth, a fan-shaped tissue piece including a cerebral cortex and striatum was cut out, and then left to stand on a porous membrane (Millicell-CM, Millipore Corporation), and culture was maintained at a gas-liquid interface under a conditions of 34° C./5% CO2 (medium composition: 50% minimal essential medium, 25% Hanks' balanced salt solution, 25% horse serum). […] PI fluorescence images were acquired using a fluorescence microscope (Keyence) 72 hours after a start of thrombin treatment, and a degree of cell death was evaluated using fluorescence intensity of a cortical region as an index (sections of 100 μM NMDA treated for 72 hours were provided for each experiment, and their PI fluorescence intensity was standardized as 100%). Further, an area of a striatal region in each tissue piece was measured from bright field images of cultured tissue pieces acquired before and after the thrombin treatment, and a rate of tissue atrophy due to the thrombin treatment was quantified.

[6] = system: cerebral cortex-striatal tissue sections; assay: Evaluation using K252a (TrkB inhibitor) of the cytoprotective effect against thrombin; type: cell-based, Wistar/ST rat; details: thrombin + K252a (3 μM)
Description: as §2, with “quantified. […]” for “quantified.”

cerebral hemorrhage = assay: Effect on cerebral hemorrhage pathology (collagenase injection into striatum); type: in vivo, ICR mouse
Description: A male ICR mouse aged 8 to 10 weeks was placed in a brain stereotaxic apparatus under triple anesthesia, and bleeding was induced by injecting 0.035 U of collagenase type VII (Sigma) into a fixed coordinate (2.3 mm lateral to a median, 0.2 mm posterior to a bregma suture, 3.5 mm below a skull) in the striatum over 2.5 minutes using a 30 gauge needle. After that, the surface of the skull was reduced with dental cement, and breeding was continued. The peretinoin 3 (40 mg/kg) was suspended in water together with 0.5% carboxymethyl cellulose, and administered intragastrically using an oral sonde three times in total 3, 27, and 51 hours after the bleeding induction. Note that for comparison, 0.5% carboxymethyl cellulose without the peretinoin 3 was also administered intragastrically in a similar manner. A degree of motor dysfunction in the mouse was evaluated by performing two types of motor function tests (beam walking test, modified limb-placing test) 6, 24, 48, and 72 hours after the bleeding induction. Further, after completion of the motor function test 72 hours later, the mouse was perfused and fixed under anesthesia, and the brain was extracted to prepare a frozen coronary section having a thickness of 16 μm. The effects of the peretinoin 3 were evaluated by identifying microglia, astrocytes, and neurons in the brain tissue, respectively, through immunohistochemistry using antibodies against Iba1, GFAP, and NeuN, and quantifying the number of cells in a given area or an immune reaction positive area.

[7] = radioactivity in brain for each time
[8] = radioactivity in brain over time
[9] = 40 mg/kg intragastrically, 6, 24, 48, 72 hours after bleeding
[10] = 40 mg/kg intragastrically, brain taken 72 hours after bleeding

## CC1=C(/C=C/C(C)=C/C=C/C(C)=C/C(=O)O)C(C)(C)CCC1 [ATRA, All-trans-retinoic acid, reference compound]
NT2 cells
  number of cells expressing MAP2 without expressing nestin (differentiation induction into nerve cells): increased
[1]
  expression of NMDA-type glutamate receptors in induced nerve cells (calcium imaging, NMDA): expressed NMDA-type glutamate receptors

## CC1(C)CCC(C)(C)c2cc(NC(=O)c3ccc([11C](=O)O)cc3)ccc21 [^11C-labeled Am80]
[2]
  intracerebral migration when used as a PET probe: no intracerebral migration was observed

## Cc1cc2c(cc1-n1nnc3cc([11C](=O)O)ccc31)C(C)(C)CCC2(C)C [^11C-labeled CBt-PMN]
[2]
  intracerebral migration when used as a PET probe: higher intracerebral migration than that of ^11C-labeled bexarotene

## CC(C)=CCC/C(C)=C/CC/C(C)=C/C=C/C([11CH3])=C/C(=O)O [^11C-labeled peretinoin 3]
[3]; PET probe
  migration into the brain (PET image): migrated into a brain
[3]; [7]
  start of migration into the brain after administration: within several minutes
[3]; [8]
  accumulation in the brain compared with the concentration when uniformly distributed throughout the body: 1.3 times
[4]; PET probe
  migration into the brain (PET image): migrated into a brain
[4]; [7]
  start of migration into the brain after administration: within several minutes
[4]; [8]
  accumulation in the brain compared with the concentration when uniformly distributed throughout the body: 3.0 times

## CC(C)=CCC/C(C)=C/CC/C(C)=C/C=C/C(C)=C/C(=O)O [peretinoin 3, (2E,4E,6E,10E)-3,7,11,15-tetramethylhexadeca-2,4,6,10,14-pentaenoic acid]
[5]
  cerebral cortex cell death induced by thrombin (PI fluorescence): concentration-dependent and significantly suppressed
  striatal tissue atrophy induced by thrombin: concentration-dependent and significantly suppressed
[6]
  inhibitory effect on striatal atrophy in the presence of K252a: not blocked by K252a
  protective effect on cerebral cortex cells in the presence of K252a: blocked by K252a
Cerebral hemorrhage; 40 mg/kg intragastrically 3, 27, 51 hours after bleeding induction
  changes in body weight after cerebral hemorrhage: suppressed weight loss
Cerebral hemorrhage; [9]
  beam-walking test: fall rate: decrease
  beam-walking test: score: increase
  beam-walking test: walking width: increase
  modified limb-placing test: deficit score: decrease
Cerebral hemorrhage; 40 mg/kg intragastrically, 24 to 72 hours after bleeding
  motor dysfunction: significantly alleviated
Cerebral hemorrhage; [10]
  accumulation of activated microglia around a hematoma (Iba1 immunohistochemistry): significantly suppressed
  shedding of nerve cells in the hematoma (NeuN immunohistochemistry): suppressed
NT2 cells
  number of cells expressing MAP2 without expressing nestin (differentiation induction into nerve cells): increased
[1]
  expression of NMDA-type glutamate receptors in induced nerve cells (calcium imaging, NMDA): expressed NMDA-type glutamate receptors
